The subject of data set [1] is inducible nitric oxide synthetase (iNOS). On the set-up: inducible nitric oxide synthetase (iNOS): dose or concentration left out as unconfirmed. Particulars: murine macrophages, cited from earlier work.
The test system of data set [2] is inducible nitric oxide synthetase. The conditions noted are these: rat mesangial cells; cited from earlier work.
The target in the next data set is MMP-2 (Homo sapiens, UniProt P08253). The method, then: (§1) Sub-confluent cell cultures were incubated for 6-24 h in serum-free DMEM and the resulted supernatant were analyzed for collagenolytic activity. The collagenolytic activity was determined on a gelatin impregnated (1 mg/ml, Difco, Detroit, Mich.), SDS-PAGE 8% gel, with minor modifications. […] The gels were then incubated for 16 hours at 37° C. in 50 mM Tris, 0.2M NaCl, 5 mM CaCl2, 0.02% Brij 35 (w/v) at pH 7.6. At the end of the incubation period, the gels were stained with 0.5% Coomassie G 250 (Bio-Rad Richmond Calif.) in methanol/acetic acid/H2O (30:10:60). The intensity of the various bands was determined on a computerized densitometer (Molecular Dynamics type 300A).

Another data set concerns the target MMP-9 (Homo sapiens, UniProt P14780). As for the experimental part:
as §1

The conditions of data set [3]: cited from earlier work.
In another data set the test system is tumor cells. The conditions noted are these: 0.0001-0.1 μM TPEN, filters coated with collagen IV. The method, then: Chemotaxis evaluation was performed in a similar way to basement membrane invasion, with the exception that the filters were coated with […] collagen IV instead of Matrigel.
For a further data set, the system named is cancer cells. The conditions noted are these: examined over 0.1-10 μM, FIG. 1. The text has this:
It is recognized that the induction of MMPs is a key event in angiogenesis and metastatic tumor cell invasiveness.

[4] abbreviates: 6 hours of incubation, HT1080, TPEN 0.001-0.1 micromolar, FIG. 4A.
Where [5] appears, read: 24 hours of incubation, HT1080, FIG. 4B.

Sequence of MMP-9 (P14780 94-707): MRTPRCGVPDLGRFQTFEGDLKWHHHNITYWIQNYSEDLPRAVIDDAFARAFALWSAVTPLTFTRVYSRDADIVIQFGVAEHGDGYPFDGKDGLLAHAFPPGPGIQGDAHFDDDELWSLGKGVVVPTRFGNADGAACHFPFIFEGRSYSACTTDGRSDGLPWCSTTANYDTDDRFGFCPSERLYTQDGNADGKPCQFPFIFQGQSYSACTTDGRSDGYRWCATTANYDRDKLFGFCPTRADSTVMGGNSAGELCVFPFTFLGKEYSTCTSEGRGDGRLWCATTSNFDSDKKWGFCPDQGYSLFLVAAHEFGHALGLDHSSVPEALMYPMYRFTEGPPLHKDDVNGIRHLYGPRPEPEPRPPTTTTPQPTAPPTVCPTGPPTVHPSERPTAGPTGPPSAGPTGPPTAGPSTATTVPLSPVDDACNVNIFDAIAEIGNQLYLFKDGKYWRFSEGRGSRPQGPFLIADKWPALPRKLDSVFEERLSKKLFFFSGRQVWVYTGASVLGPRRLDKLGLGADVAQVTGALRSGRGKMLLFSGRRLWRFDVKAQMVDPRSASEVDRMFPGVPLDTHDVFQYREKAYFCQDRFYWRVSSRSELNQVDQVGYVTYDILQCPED
Sequence of MMP-2 (P08253 110-660): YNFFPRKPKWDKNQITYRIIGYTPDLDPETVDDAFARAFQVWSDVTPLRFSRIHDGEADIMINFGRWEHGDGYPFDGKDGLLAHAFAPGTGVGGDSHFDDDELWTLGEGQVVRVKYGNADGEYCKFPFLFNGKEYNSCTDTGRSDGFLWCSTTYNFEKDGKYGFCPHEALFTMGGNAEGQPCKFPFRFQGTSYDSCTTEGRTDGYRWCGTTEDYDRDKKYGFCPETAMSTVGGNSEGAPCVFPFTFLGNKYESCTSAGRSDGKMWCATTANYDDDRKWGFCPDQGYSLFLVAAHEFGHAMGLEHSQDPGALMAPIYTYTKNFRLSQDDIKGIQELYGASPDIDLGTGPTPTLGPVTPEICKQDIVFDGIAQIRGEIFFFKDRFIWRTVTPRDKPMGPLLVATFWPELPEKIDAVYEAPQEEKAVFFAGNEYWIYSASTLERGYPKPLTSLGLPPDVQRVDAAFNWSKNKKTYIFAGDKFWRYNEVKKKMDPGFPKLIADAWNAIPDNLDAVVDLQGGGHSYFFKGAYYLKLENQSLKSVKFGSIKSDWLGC

Turning to `NC(=O)C1=C(O)C[C@@H]2C[C@@H]3Cc4cccc(O)c4C(=O)C3=C(O)[C@]2(O)C1=O` [COL-3, 6-demethyl-6-deoxy-4-dedimethylaminotetracycline], the nitric oxide production entry in data set [1] (COL-3 between 2.5 and 10 µg/mL, concentration-dependent) was “inhibited”. Also, the “inducible nitric oxide synthetase (iNOS)” value in data set [1] (COL-3 between 2.5 and 10, concentration-dependent) is “inhibited”. In data set [2], the “inducible nitric oxide synthetase protein expression” value is reported as “decrease” and the nitric oxide production entry is reported as “decrease”.

Turning to `c1ccc(CN(CCN(Cc2ccccn2)Cc2ccccn2)Cc2ccccn2)nc1` [TPEN, NNN′N′-Tetrakis-(2-pyridyl-methyl)-ethylenediamine], on MMP-2 (setting [4]), the “MMP-2 activity, % from the control” value is 32%. Further, on MMP-2 (setting [5]), the “inhibition of MMP-2 activity after 24 hours” value is recorded as “disappeared”. Further, the “MMP-9 activity, % from the control” value at MMP-9 (setting [4]) is listed as 64%. Further, the “inhibition of MMP-9 activity after 24 hours” value against MMP-9 (setting [5]) was “disappeared”. In addition, the Ion affinity entry in data set [3] (rank order of metal ions) is “Zn^2+ > Fe^2+ > Mn^2+ >> Ca^2+ > Mg^2+”. The metal binding entry in data set [3] (under physiological blood concentration) was “binds zinc, iron, and copper but does not bind magnesium and calcium”. Further, the “chemotactic activity of the cells” value in the data set with tumor cells is “not affected”. In addition, the “concentration above which TPEN has a toxic effect” value in the data set with cancer cells is recorded as “above 0.1 μM”.

The values are drawn from patent US20070027064A1, “Pharmaceutical compositions for inhibiting metal ion dependent enzymatic activity and methods for the use thereof” (priority 2003, published 2007).
